Results: publication PMC3553014, “Albumin Stimulates the Activity of the Human UDP-Glucuronosyltransferases 1A7, 1A8, 1A10, 2A1 and 2B15, but the Effects Are Enzyme and Substrate Dependent” (PLoS ONE, 2013)
Where two headings read alike, the source gives them in different places. Blank lines part the entries; values can stand above or below the compound they belong to.

Tests used:
[1] = biological target: T1, UGT1A6 (Homo sapiens, UniProt P19224); experiment: UGT1A6-catalyzed glucuronidation, enzyme kinetics; conditions: No BSA; expression level-normalized
T1 sequence (P19224 27-532): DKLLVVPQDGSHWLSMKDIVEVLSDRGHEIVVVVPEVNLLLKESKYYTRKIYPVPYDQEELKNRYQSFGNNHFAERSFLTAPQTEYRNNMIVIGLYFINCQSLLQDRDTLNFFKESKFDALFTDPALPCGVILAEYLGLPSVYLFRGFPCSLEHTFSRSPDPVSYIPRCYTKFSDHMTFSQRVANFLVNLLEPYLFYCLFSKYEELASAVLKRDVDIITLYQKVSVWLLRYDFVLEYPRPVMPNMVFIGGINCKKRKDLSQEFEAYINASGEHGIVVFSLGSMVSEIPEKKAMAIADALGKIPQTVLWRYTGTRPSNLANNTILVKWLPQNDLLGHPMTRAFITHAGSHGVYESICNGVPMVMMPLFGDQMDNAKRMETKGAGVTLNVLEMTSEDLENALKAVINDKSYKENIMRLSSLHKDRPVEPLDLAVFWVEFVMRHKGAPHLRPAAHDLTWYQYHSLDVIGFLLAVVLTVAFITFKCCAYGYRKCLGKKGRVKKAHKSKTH
Experimental: (§1) Recombinant human UGTs 1A1, 1A6, 1A7, 1A8, 1A10, 2A1, 2B4, 2B7 and 2B17 were expressed as His-tagged proteins in baculovirus-infected insect cells as described previously [14]. […] Protein concentrations were determined by the BCA method (Pierce Biotechnology, Rockford, IL, USA).
(§2) The protein concentrations and incubation times for the enzyme kinetic assays were selected based on preliminary assays in order to ensure that the product formation was within the linear range with respect to both protein concentration and time, and that the substrate consumption during the reaction was less than 10%. The initial velocity measurements were performed in either duplicates or triplicates and they are presented as the average values and S.E.
(§3) The glucuronidation rates by recombinant enzymes are reported as “expression normalized” values. The relative expression level of each recombinant UGT that was produced in our laboratory was determined using immunoblotting, as previously described [14], [19]. The dot blot assays were performed in triplicate and the average value was used for normalization. […] The “expression normalized” glucuronidation rates were calculated by dividing the measured glucuronidation rates with relative expression level of the each given recombinant UGT.
(§4) In assays containing BSA, the total concentrations of substrate were corrected according to the measured drug binding to BSA, under the specific conditions of each glucuronidation assay. The statistical significance of the difference in enzyme kinetics parameters upon BSA addition was tested with extra sum-of-squares F-test (included in the GraphPad software, [20]. The initial glucuronidation rates were fitted to the following equations:

[2] = biological target: T2, BSA (Bos taurus, UniProt P02769); experiment: in vitro; conditions: bovine
T2 sequence (P02769 25-607): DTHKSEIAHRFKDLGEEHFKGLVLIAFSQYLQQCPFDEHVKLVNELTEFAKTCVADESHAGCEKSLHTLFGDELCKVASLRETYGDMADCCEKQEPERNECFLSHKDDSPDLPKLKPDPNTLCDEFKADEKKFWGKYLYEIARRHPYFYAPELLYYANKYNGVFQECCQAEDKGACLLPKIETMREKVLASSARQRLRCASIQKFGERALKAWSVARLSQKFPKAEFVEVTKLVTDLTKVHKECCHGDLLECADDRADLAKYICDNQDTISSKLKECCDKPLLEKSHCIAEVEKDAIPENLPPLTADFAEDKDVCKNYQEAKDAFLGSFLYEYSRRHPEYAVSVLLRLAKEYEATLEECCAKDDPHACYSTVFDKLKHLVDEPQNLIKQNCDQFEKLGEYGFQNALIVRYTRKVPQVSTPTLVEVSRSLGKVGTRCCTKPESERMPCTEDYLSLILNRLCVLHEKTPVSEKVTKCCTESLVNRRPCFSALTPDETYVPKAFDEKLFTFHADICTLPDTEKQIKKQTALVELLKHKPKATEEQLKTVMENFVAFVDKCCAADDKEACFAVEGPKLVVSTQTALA

[3] = Nonspecific binding to the RED device; conditions: rapid equilibrium dialysis
[4] = biological target: T3, UGT1A1 (Homo sapiens, UniProt P22309); conditions: read-out: No BSA: K m or S 50 ± S.E. (95% CI)
T3 sequence (P22309 26-533): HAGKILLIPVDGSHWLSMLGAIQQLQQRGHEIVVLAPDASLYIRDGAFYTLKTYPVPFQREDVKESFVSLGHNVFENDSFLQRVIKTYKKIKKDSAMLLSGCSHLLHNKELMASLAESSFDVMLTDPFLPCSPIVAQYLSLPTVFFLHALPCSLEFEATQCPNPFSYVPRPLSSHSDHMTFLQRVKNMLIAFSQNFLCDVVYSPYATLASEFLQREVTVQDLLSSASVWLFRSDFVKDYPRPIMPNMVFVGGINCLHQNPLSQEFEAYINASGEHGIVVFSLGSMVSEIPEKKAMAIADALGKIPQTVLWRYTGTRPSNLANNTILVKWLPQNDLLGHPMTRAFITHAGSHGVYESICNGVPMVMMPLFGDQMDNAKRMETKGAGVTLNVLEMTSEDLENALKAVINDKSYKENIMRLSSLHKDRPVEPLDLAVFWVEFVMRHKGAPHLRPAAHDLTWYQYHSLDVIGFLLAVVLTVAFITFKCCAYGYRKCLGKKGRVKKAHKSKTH
Experimental: as §1, §2
The HPLC system consisted of an Agilent 1100 series degasser, binary pump, 100-vial autosampler, thermostated column compartment, multiple wavelengths UV detector, and fluorescence detector (Agilent Technologies, Palo Alto, CA, USA). […] The resulting chromatograms were analyzed with Agilent ChemStation software (rev. B.01.01) on Windows XP Professional. […] The resulting chromatograms were analyzed with Empower 2 software (Build 2154, Waters, Milford, MA, USA) on Windows XP Professional operating system. The limits of detection and quantification were estimated based on signal-to-noise ratios of 3 and 10, respectively. […]

[5] = biological target: T4, UGT2B15 (Homo sapiens, UniProt P54855)
T4 sequence (P54855 24-530): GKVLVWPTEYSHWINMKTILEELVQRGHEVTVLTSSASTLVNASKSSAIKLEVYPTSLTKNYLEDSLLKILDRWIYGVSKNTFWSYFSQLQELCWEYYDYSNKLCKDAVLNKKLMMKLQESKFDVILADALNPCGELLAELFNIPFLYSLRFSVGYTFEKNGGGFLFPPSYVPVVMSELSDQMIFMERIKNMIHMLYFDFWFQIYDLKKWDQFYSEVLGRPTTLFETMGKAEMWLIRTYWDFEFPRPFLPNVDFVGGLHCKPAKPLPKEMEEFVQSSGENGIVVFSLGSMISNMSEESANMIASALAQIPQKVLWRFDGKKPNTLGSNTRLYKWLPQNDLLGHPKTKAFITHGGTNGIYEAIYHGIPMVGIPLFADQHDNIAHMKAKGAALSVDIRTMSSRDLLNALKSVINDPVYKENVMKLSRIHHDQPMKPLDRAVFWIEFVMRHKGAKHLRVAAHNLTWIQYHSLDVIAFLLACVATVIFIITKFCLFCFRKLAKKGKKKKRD
Experimental: as §1, §2, §3, §4

[6] = Drug binding to control insect cell membranes by RED; conditions: 0.2 mg/mL total protein in the membrane
[7] = biological target: T5, UGT2B4 (Homo sapiens, UniProt P06133); experiment: UGT2B4-catalyzed glucuronidation, enzyme kinetics
T5 sequence (P06133 24-528): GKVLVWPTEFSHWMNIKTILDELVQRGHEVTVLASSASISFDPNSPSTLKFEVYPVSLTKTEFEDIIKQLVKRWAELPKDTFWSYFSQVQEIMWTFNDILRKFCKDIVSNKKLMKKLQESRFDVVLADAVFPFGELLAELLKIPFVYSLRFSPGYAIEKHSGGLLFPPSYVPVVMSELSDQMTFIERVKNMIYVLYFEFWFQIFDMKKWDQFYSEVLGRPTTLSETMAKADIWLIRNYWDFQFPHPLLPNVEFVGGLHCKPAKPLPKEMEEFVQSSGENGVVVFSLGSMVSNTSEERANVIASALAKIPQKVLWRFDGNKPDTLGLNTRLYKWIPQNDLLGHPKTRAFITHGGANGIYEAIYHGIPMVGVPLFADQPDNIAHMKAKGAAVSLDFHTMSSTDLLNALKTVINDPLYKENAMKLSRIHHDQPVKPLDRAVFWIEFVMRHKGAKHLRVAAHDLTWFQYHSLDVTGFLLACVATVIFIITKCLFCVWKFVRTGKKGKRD
Experimental: (§5) Protein concentrations were determined by the BCA method (Pierce Biotechnology, Rockford, IL, USA).
as §2
(§6) The glucuronidation rates by recombinant enzymes are reported as “expression normalized” values. […] The dot blot assays were performed in triplicate and the average value was used for normalization. […] The “expression normalized” glucuronidation rates were calculated by dividing the measured glucuronidation rates with relative expression level of the each given recombinant UGT.
as §4

[8] = biological target: T6, UGT1A7 (Homo sapiens, UniProt Q9HAW7); experiment: UGT1A7-catalyzed glucuronidation, enzyme kinetics; assay type: in vitro ADME; conditions: for V max ± S.E.: No BSA, expression level-normalized
T6 construct: His-tag; made in house; host or cells: baculovirus-infected insect cells (Sf9)
T6 sequence (Q9HAW7 26-530): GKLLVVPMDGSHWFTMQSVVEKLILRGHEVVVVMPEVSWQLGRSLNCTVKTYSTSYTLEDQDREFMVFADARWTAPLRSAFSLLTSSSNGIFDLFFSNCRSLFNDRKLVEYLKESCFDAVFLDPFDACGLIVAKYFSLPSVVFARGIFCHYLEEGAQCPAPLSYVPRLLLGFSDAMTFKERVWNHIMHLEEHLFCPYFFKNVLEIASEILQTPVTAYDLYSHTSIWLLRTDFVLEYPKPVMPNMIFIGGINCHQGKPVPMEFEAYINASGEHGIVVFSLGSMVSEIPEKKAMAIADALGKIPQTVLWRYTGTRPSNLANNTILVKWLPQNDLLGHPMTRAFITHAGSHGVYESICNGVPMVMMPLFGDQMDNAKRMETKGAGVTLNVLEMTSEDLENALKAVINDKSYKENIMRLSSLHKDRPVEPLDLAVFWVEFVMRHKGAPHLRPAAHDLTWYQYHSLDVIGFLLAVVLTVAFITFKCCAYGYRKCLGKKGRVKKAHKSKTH
Experimental: as §5, §2
The glucuronidation rates by recombinant enzymes are reported as “expression normalized” values. […] The “expression normalized” glucuronidation rates were calculated by dividing the measured glucuronidation rates with relative expression level of the each given recombinant UGT.
The enzyme kinetic parameters were obtained by fitting kinetic models to the experimental data using GraphPad Prism version 5.04 for Windows (GraphPad Software Inc., San Diego, CA, USA).

[9] = biological target: T7, UGT2A1 (Homo sapiens, UniProt P0DTE4); experiment: UGT2A1-catalyzed glucuronidation, enzyme kinetics; conditions: 0.1% BSA vs no BSA
T7 sequence (P0DTE4 21-527): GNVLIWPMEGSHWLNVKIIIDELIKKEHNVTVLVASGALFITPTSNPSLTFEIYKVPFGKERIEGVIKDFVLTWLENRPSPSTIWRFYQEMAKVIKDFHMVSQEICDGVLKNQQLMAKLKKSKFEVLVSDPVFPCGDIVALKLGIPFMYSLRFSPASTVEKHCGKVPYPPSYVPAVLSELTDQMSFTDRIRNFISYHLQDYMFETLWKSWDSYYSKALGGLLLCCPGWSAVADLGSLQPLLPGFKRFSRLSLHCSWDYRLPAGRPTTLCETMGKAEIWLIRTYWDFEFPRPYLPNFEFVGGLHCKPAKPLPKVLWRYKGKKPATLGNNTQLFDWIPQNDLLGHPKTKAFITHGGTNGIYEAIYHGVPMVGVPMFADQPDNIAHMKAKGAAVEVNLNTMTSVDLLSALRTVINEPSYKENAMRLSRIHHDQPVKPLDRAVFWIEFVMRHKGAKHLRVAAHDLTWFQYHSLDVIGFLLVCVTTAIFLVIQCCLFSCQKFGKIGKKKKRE
Experimental: as §1, §2, §3, §4

[10] = tested on: UGT1A9 expressed in Sf9 insect cells; conditions: darexaban glucuronidation; cited from earlier work
[11] = biological target: T2, BSA; set-up: purchased Sigma-Aldrich (St. Louis, MO, USA); conditions: 1% BSA; cited from earlier work
[12] = biological target: T8, UGT1A10 (Homo sapiens, UniProt Q9HAW8); experiment: UGT1A10-catalyzed glucuronidation, enzyme kinetics; assay type: in vitro ADME; conditions: No BSA; expression level-normalized; estradiols: 3-glucuronide formation
T8 construct: His-tag; made in house; host or cells: baculovirus-infected insect cells (Sf9)
T8 sequence (Q9HAW8 26-530): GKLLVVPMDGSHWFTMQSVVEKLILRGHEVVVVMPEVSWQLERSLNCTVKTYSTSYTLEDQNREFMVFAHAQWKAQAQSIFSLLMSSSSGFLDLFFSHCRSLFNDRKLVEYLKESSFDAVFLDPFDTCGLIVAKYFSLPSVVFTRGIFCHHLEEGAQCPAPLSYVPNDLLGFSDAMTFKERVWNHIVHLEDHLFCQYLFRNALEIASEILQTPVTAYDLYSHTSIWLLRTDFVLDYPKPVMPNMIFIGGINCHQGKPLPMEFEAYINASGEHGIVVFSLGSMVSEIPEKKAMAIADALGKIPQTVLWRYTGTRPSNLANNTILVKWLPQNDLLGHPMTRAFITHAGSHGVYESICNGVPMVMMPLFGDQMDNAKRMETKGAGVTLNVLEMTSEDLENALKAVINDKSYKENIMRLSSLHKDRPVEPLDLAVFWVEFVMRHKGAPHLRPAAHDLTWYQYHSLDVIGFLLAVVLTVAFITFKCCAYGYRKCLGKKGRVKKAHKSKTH
Experimental: as §1, §2
The glucuronidation rates by recombinant enzymes are reported as “expression normalized” values. The relative expression level of each recombinant UGT that was produced in our laboratory was determined using immunoblotting, as previously described [14], [19]. […] The “expression normalized” glucuronidation rates were calculated by dividing the measured glucuronidation rates with relative expression level of the each given recombinant UGT.
In assays containing BSA, the total concentrations of substrate were corrected according to the measured drug binding to BSA, under the specific conditions of each glucuronidation assay.

[13] = biological target: T9, UGT2B7 (Homo sapiens, UniProt P16662); conditions: No BSA; expression level-normalized; estradiols: 17-glucuronide formation
T9 sequence (P16662 24-529): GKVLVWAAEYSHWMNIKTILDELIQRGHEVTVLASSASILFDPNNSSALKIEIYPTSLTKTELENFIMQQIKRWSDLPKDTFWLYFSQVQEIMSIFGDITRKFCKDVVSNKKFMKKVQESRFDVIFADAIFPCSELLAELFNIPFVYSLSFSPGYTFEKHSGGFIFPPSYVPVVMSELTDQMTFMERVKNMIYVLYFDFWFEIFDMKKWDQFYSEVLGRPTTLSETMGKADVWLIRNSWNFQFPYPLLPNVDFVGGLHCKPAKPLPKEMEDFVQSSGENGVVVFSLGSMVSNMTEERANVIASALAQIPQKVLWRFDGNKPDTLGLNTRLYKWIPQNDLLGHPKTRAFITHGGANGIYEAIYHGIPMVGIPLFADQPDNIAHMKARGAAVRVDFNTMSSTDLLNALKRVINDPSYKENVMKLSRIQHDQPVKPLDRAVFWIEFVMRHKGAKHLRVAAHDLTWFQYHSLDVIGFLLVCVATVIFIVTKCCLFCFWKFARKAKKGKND
Experimental: as §5, §2, §6, §4

[14] = biological target: T3, UGT1A1; experiment: UGT1A1-catalyzed glucuronidation, enzyme kinetics; conditions: No BSA; expression level-normalized; estradiols: 3-glucuronide formation
Experimental: as §1, §2, §3, §4

V max ± S.E. [1]: 7.0±0.8(5.3–8.7) nmol•min^–1•mg^–1
fraction unbound at 6 h [2]: 0.84 to 0.97
nonspecific binding to the RED device [3]: ≤ 10%
Compound: Oc1ccc2cc[nH]c2c1 [6-Hydroxyindole, 6-hydroxyindole]

K m or S 50 ± S.E. ([5]; 0.1% BSA, substrate concentration corrected for binding to BSA, 17α-estradiol: 3-glucuronide formation): 5.58±0.56 ^***(4.24–6.74) µM
binding to control insect cell membrane [6]: negligible
fraction unbound at 8 h [2]: 0.49 ± 0.01
K m or S 50 ± S.E. [7]: 1.60±0.23 ^***(1.12–2.08) µM
Compound: C[C@]12CC[C@@H]3c4ccc(O)cc4CC[C@H]3[C@@H]1CC[C@H]2O [17α-Estradiol, 17α-estradiol]
V max ± S.E. [5]: 0.069±0.003(0.062–0.076) nmol•min^–1•mg^–1
V max ± S.E. [7]: 0.053±0.002(0.048–0.058) nmol•min^–1•mg^–1

V max ± S.E. [8]: 0.25±0.01(0.22–0.28) nmol•min^–1•mg^–1
V max ± S.E. [1]: 5.2±0.3(4.5–6.0) nmol•min^–1•mg^–1
V max ± S.E. [12]: 8.0±0.3(7.3–8.7) nmol•min^–1•mg^–1
V max ± S.E. [13]: 0.28±0.03(0.22–0.34) nmol•min^–1•mg^–1
V max ± S.E. ([5]; No BSA, measured rates, not expression normalized, 17α-estradiol: 3-glucuronide formation): 0.83±0.01(0.82–0.85) nmol•min^–1•mg^–1
V max ± S.E. [14]: 0.11±0.004(0.11–0.12) nmol•min^–1•mg^–1
Compound: Cc1cc(=O)oc2cc(O)ccc12 [4-MU, 4-Methylumbelliferone]

The remaining lines, values behind:

Compound: 17β-estradiol
Km [4]: 7.84 µM

Compound: bovine serum albumin [BSA]
V max increase on inclusion of 0.1% BSA ([8]; 0.1% BSA vs no BSA): up to 7 fold
decrease of K m values on inclusion of 0.1% BSA [9]: up to 20 fold
effect of 2% BSA instead of 0.1% BSA [10]: very little effect

Compound: CCN(CC)C(=O)/C(C#N)=C/c1cc(O)c(O)c([N+](=O)[O-])c1 [Entacapone]
f u (unbound fraction) [11]: < 0.1
V max ± S.E. [8]: 0.15±0.01(0.14–0.16) nmol•min^–1•mg^–1
V max ± S.E. [12]: 0.91±0.01(0.89–0.94) nmol•min^–1•mg^–1
